Experimental data taken from ChEMBL document CHEMBL1121922, “Synthesis and pharmacological evaluation of a series of analogues of 1-methylisoguanosine” (1981).
The source made the active and inactive calls. No cut-off for these calls is given here.

Key:
Mus musculus [1] = species on record: Mus musculus; test: Effective peroral dose for muscle relaxation in mice; type: functional; conditions: po
Rattus norvegicus [2] = test: Antiinflammatory activity of 100mg/Kg, po compound was assessed by inhibition of carrageenan-induced edema in rats; NA= No activity; type: functional, organism-based
Mus musculus [3] = species on record: Mus musculus; test: Effective peroral dose hypothermic activity in mice; type: functional; conditions: po
Rattus norvegicus [4] = test: Antiallergic activity of 10 mg/kg intravenous dose of compound was assessed by the inhibition of passive paw anaphylaxis in rats; NA= No activity; type: functional, organism-based; design: dose 10 mg/kg; conditions: at 10 mg/kg
Rattus norvegicus [5] = test: Cardiovascular response in conscious hypertensive rats after administration of compound expressed as percent reduction in blood pressure; type: functional
Rattus norvegicus [6] = test: Cardiovascular response in conscious hypertensive rats after administration of compound expressed as percent reduction in heart rate; type: functional
Rattus norvegicus [7] = test: Cardiovascular response in conscious hypertensive rats after administration of compound expressed as percent reduction in heart rate; NA= No activity; type: functional, organism-based
Rattus norvegicus [8] = test: Cardiovascular response in conscious hypertensive rats after administration of compound expressed as percent reduction in blood pressure; NA= No activity; type: functional, organism-based
Rattus norvegicus [9] = test: Antiallergic activity of compound (10mg/Kg, iv) was assessed by the inhibition of passive paw anaphylaxis in rats; NA= No activity; type: functional, organism-based
Rattus norvegicus [10] = test: Antiinflammatory activity of compound (100 mg/kg) was assessed by inhibition of carrageenan-induced edema in rats; NA= No activity; type: functional, organism-based
Rattus norvegicus [11] = test: Antiallergic activity of 10 mg/kg intravenous dose of compound was assessed by the inhibition of passive paw anaphylaxis in rats; type: functional
Rattus norvegicus [12] = test: Antiinflammatory activity of 50mg/Kg, po compound was assessed by inhibition of carrageenan-induced edema in rats; no activity; type: functional
Rattus norvegicus [13] = test: Antiinflammatory activity of 25mg/Kg, po compound was assessed by inhibition of carrageenan-induced edema in rats; NA= No activity; type: functional, organism-based
Mus musculus [14] = species on record: Mus musculus; test: Effective peroral dose hypothermic activity in mice; 16.6-26.9; type: functional; conditions: po
Mus musculus [15] = species on record: Mus musculus; test: Effective peroral dose for muscle relaxation in mice; 24.7-35.2; type: functional; conditions: po
Mus musculus [16] = species on record: Mus musculus; test: Effective peroral dose for muscle relaxation in mice; 8.6-27.1; type: functional; conditions: po
Mus musculus [17] = species on record: Mus musculus; test: Effective peroral dose hypothermic activity in mice; 7.5-20.7; type: functional; conditions: po
Rattus norvegicus [18] = test: Antiallergic activity of compound (10 mg/kg, iv) was assessed by the inhibition of passive paw anaphylaxis in rats; type: functional
Rattus norvegicus [19] = test: Antiinflammatory activity of compound (20 mg/kg) was assessed by inhibition of carrageenan-induced edema in rats; type: functional
Rattus norvegicus [20] = test: Antiinflammatory activity of compound (50 mg/kg) was assessed by inhibition of carrageenan-induced edema in rats; type: functional
Rattus norvegicus [21] = test: Antiallergic activity of compound (10 mg/kg, iv) was assessed by the inhibition of passive paw anaphylaxis in rats; NA= No activity; type: functional, organism-based
Rattus norvegicus [22] = test: Antiinflammatory activity of compound (25 mg/kg) was assessed by inhibition of carrageenan-induced edema in rats
Mus musculus [23] = species on record: Mus musculus; test: Effective peroral dose hypothermic activity in mice; 6.3-18.7; type: functional; conditions: po
Mus musculus [24] = species on record: Mus musculus; test: Effective peroral dose for muscle relaxation in mice; 7.7-16.3; type: functional; conditions: po
Mus musculus [25] = species on record: Mus musculus; test: Effective peroral dose for muscle relaxation in mice; 9.9-39.2; type: functional; conditions: po
Rattus norvegicus [26] = test: Antiinflammatory activity of compound (25 mg/kg) was assessed by inhibition of carrageenan-induced edema in rats; type: functional
Mus musculus [27] = species on record: Mus musculus; test: Effective peroral dose hypothermic activity in mice; 2.2-71.9; type: functional; conditions: po

Nc1nc(=O)[nH]c2c1ncn2[C@@H]1O[C@H](CO)[C@@H](O)[C@H]1O [ISOGUANOSINE]
ED50 (Mus musculus [1]): > 100 mg/kg
inhibition (Rattus norvegicus [2]): inactive
ED50 (Mus musculus [3]): > 100 mg/kg

Cn1c(=O)[nH]c2c(nc(NN)n2C2O[C@H](CO)[C@@H](O)[C@H]2O)c1=N (some centres not stated)
inhibition (Rattus norvegicus [4]): inactive
BP (Rattus norvegicus [5]): -13%
ED50 (Mus musculus [1]): > 100 mg/kg
inhibition (Rattus norvegicus [2]): inactive
HR (Rattus norvegicus [6]): -21%
ED50 (Mus musculus [3]): > 100 mg/kg

Cn1c(=O)[nH]c2c(ncn2C2O[C@H](CO)[C@@H](O)[C@@H]2O)c1=N (some centres not stated)
HR (Rattus norvegicus [7]): inactive
ED50 (Mus musculus [1]): > 100 mg/kg
ED50 (Mus musculus [3]): > 100 mg/kg
BP (Rattus norvegicus [8]): Not significant
inhibition (Rattus norvegicus [9]): inactive
inhibition (Rattus norvegicus [10]): inactive

Cn1c(=N)c2ncn3c2n(c1=O)C[C@H]1OC3[C@H](O)[C@@H]1O.I
inhibition in vivo at 10 mg/kg (Rattus norvegicus [11]): 45%
inhibition in vivo at 50 mg/kg (Rattus norvegicus [12]): 21%
HR (Rattus norvegicus [7]): inactive
ED50 (Mus musculus [1]): > 100 mg/kg
ED50 (Mus musculus [3]): > 100 mg/kg
BP (Rattus norvegicus [8]): Not significant

C[C@H]1OC(n2cnc3c(=N)n(C)c(=O)[nH]c32)[C@H](O)[C@@H]1O (some centres not stated)
inhibition (Rattus norvegicus [4]): inactive
HR (Rattus norvegicus [7]): inactive
ED50 (Mus musculus [1]): > 100 mg/kg
inhibition (Rattus norvegicus [2]): inactive
ED50 (Mus musculus [3]): > 100 mg/kg
BP (Rattus norvegicus [8]): Not significant

Cn1c(=O)[nH]c2c(ncn2C2O[C@@H]3COP(=O)(O)O[C@@H]3[C@@H]2O)c1=N (some centres not stated)
inhibition in vivo at 10 mg/kg (Rattus norvegicus [11]): 14%
BP (Rattus norvegicus [5]): -17%
inhibition (Rattus norvegicus [13]): inactive
ED50 (Mus musculus [14]): 21.2 mg/kg
HR (Rattus norvegicus [6]): -37%
ED50 (Mus musculus [15]): 29.5 mg/kg

COc1nc(N)c2ncn([C@@H]3O[C@H](CO)[C@@H](O)[C@H]3O)c2n1 [BVT.115959]
ED50 (Mus musculus [16]): 15.3 mg/kg
BP (Rattus norvegicus [5]): -41%
ED50 (Mus musculus [17]): 12.5 mg/kg
Inhibition (Rattus norvegicus [18]): 56%
HR (Rattus norvegicus [6]): -25%
Inhibition (Rattus norvegicus [19]): 25%
Inhibition (Rattus norvegicus [20]): 57%

N=c1c2ncn(C3O[C@H](CO)[C@@H](O)[C@H]3O)c2[nH]c(=O)n1-c1ccccc1 (some centres not stated)
inhibition in vivo at 10 mg/kg (Rattus norvegicus [11]): 30%
HR (Rattus norvegicus [7]): inactive
ED50 (Mus musculus [1]): > 100 mg/kg
inhibition (Rattus norvegicus [2]): inactive
ED50 (Mus musculus [3]): > 100 mg/kg
BP (Rattus norvegicus [8]): Not significant

Cn1c(=O)[nH]c2c(ncn2COCCO)c1=N
HR (Rattus norvegicus [7]): inactive
ED50 (Mus musculus [1]): > 100 mg/kg
ED50 (Mus musculus [3]): > 100 mg/kg
BP (Rattus norvegicus [8]): Not significant
inhibition (Rattus norvegicus [9]): inactive
inhibition (Rattus norvegicus [10]): inactive

Cn1c(=O)[nH]c2c(ncn2C2O[C@H](CI)[C@@H](O)[C@H]2O)c1=N (some centres not stated)
HR (Rattus norvegicus [7]): inactive
ED50 (Mus musculus [1]): > 100 mg/kg
Inhibition (Rattus norvegicus [18]): 14%
ED50 (Mus musculus [3]): > 100 mg/kg
BP (Rattus norvegicus [8]): Not significant
inhibition (Rattus norvegicus [10]): inactive

CCCCn1c(=O)[nH]c2c(ncn2C2O[C@H](CO)[C@@H](O)[C@H]2O)c1=N (some centres not stated)
inhibition in vivo at 10 mg/kg (Rattus norvegicus [11]): 35%
BP (Rattus norvegicus [5]): -7%
ED50 (Mus musculus [1]): > 100 mg/kg
inhibition (Rattus norvegicus [2]): inactive
HR (Rattus norvegicus [6]): -16%
ED50 (Mus musculus [3]): > 100 mg/kg

CCCCCCCCn1c(=O)[nH]c2c(ncn2C2O[C@H](CO)[C@@H](O)[C@H]2O)c1=N (some centres not stated)
HR (Rattus norvegicus [7]): inactive
ED50 (Mus musculus [1]): > 100 mg/kg
Inhibition (Rattus norvegicus [18]): 14%
ED50 (Mus musculus [3]): > 100 mg/kg
BP (Rattus norvegicus [8]): Not significant
inhibition (Rattus norvegicus [10]): inactive

Cn1c(=O)[nH]c2c(nc(Br)n2C2O[C@H](CO)[C@@H](O)[C@H]2O)c1=N (some centres not stated)
HR (Rattus norvegicus [7]): inactive
ED50 (Mus musculus [1]): > 100 mg/kg
ED50 (Mus musculus [3]): > 100 mg/kg
BP (Rattus norvegicus [8]): Not significant
inhibition (Rattus norvegicus [10]): inactive
inhibition (Rattus norvegicus [21]): inactive

Cn1c(N)c2nc([C@@H]3O[C@H](CO)[C@@H](O)[C@H]3O)nc-2[nH]c1=O
inhibition (Rattus norvegicus [4]): inactive
BP (Rattus norvegicus [5]): -9%
HR (Rattus norvegicus [7]): inactive
ED50 (Mus musculus [1]): > 100 mg/kg
inhibition (Rattus norvegicus [2]): inactive
ED50 (Mus musculus [3]): > 100 mg/kg

Cn1c(=O)[nH]c2c(nc(N)n2C2O[C@H](CO)[C@@H](O)[C@H]2O)c1=N (some centres not stated)
inhibition (Rattus norvegicus [4]): inactive
BP (Rattus norvegicus [5]): -10%
ED50 (Mus musculus [1]): > 100 mg/kg
inhibition (Rattus norvegicus [2]): inactive
HR (Rattus norvegicus [6]): -20%
ED50 (Mus musculus [3]): > 100 mg/kg

Cn1c(=O)[nH]c2c(ncn2C2O[C@H](CO)[C@@H](O)[C@H]2O)c1=N (some centres not stated)
Inhibition (Rattus norvegicus [22]): 62%
BP (Rattus norvegicus [5]): -32%
ED50 (Mus musculus [23]): 10.9 mg/kg
Inhibition (Rattus norvegicus [18]): 55%
HR (Rattus norvegicus [6]): -36%
ED50 (Mus musculus [24]): 11.2 mg/kg

CCn1c(=O)[nH]c2c(ncn2C2O[C@H](CO)[C@@H](O)[C@H]2O)c1=N (some centres not stated)
BP (Rattus norvegicus [5]): -18%
ED50 (Mus musculus [1]): > 100 mg/kg
Inhibition (Rattus norvegicus [18]): 40%
HR (Rattus norvegicus [6]): -27%
ED50 (Mus musculus [3]): > 100 mg/kg
Inhibition (Rattus norvegicus [20]): 17%

Cn1c(=O)[nH]c2c(ncn2C2O[C@H](CO)[C@@H](O)[C@H]2O)c1=O (some centres not stated)
inhibition (Rattus norvegicus [4]): inactive
HR (Rattus norvegicus [7]): inactive
ED50 (Mus musculus [1]): > 100 mg/kg
inhibition (Rattus norvegicus [2]): inactive
ED50 (Mus musculus [3]): > 100 mg/kg
BP (Rattus norvegicus [8]): Not significant

Cn1c(=O)[nH]c2c(ncn2C2O[C@H](COP(=O)(O)O)[C@@H](O)[C@H]2O)c1=N (some centres not stated)
BP (Rattus norvegicus [5]): -44%
ED50 (Mus musculus [25]): 19.7 mg/kg
Inhibition (Rattus norvegicus [18]): 57%
HR (Rattus norvegicus [6]): -48%
Inhibition (Rattus norvegicus [26]): 46%
ED50 (Mus musculus [27]): 12.6 mg/kg
